Tested on: xenograft models of prostate cancer
Assay: In vivo antitumor efficacy
Set-up: species or system mice
Settings: Dox 22 μg/mL or Tf-Dox containing 5 μg/mL Dox i.v.; Ad.DD3 intratumoral 7 days before; 14 days observation
Excerpt: To study the in vivo enhancement effect of the genetic probes on the antitumor efficacy of Tf-Dox, we first established xenograft models of prostate cancer by subcutaneous injection of LNCap tumor cells (about 1×10^6) in Matrigel (BD Biosciences; 1/1) into the left shoulder of BALB/c male mice. […] During 14 days of observation, we monitored the tumor volumes according to the following formula: V=a×b^2/2 where a and b were the longest and shortest diameters of the tumor, respectively, measured using a Vernier caliper. […] The reduced injection dose, in turn, is promising to lower down the distribution and biotoxicity of drugs towards the normal tissues. […] Thus, the optimized therapy outcome of the gene-nanoparticle synergetic strategy is resulted from the enhanced tumor homing ability of the nanoparticles leading to higher DOX accumulation in the tumor cells rather than the antitumor effect of the gene probes.
Xenograft models of prostate cancer were established by subcutaneous injection of LNCap tumor cells (about 1×10^6) in Matrigel (BD Biosciences; 1/1) into the left shoulder of BALB/c male mice. […] Changes in tumor volume and body weight were monitored at several scheduled time-points. The volume of the tumor was calculated according to the following formula: V=a×b^2/2 where a and b were the longest and shortest diameters of tumor, respectively, measured using a Vernier calliper. […]

Tf-Dox
Tumor volume / tumor inhibition: an increase of tumor volume was visualized

Reference: patent US12638451B2, “Genetic amplified tumor homing nanoparticles and compositions and methods thereof” (priority 2019, dated 2026)
